Where two headings read alike, the source gives them in different places.
Key:
[1] = system: DNA repair foci in LN229 MGMT+/−, MMR+/− cells; assay: Immunofluorescence foci assays (γH2AX, 53BP1, pRPA); assay type: cell-based, human; conditions: 20 μM, 2 to 48 h
Procedure: FIGS. 5A-5K: KL-50 activates DNA damage response pathways and cycle arrest in MGMT-cells, independent of MMR, and induces sensitivity in cells deficient in ICL or HR repair. […] Columns, mean; error bars, SD; n 5 technical replicates. FIGS. 5D-5K: KL-50 induces activation of the ATR-CHK1 and ATM-CHK2 signaling axes and delayed DNA repair foci formation in MGMT-deficient cells, independent of MMR status. […] Treatment with 1 μM doxorubicin for 24 h (Doxo) served as a positive control for p-CHK1 activation. […] Points, mean % cells with >10 foci; error bars, SD; n >5 technical replicates. […] Points, % cells with 10 foci, n>250 cells per condition.
Immunofluorescence Foci Assays. High-throughput immunofluorescence foci assays were performed at the Yale Center for Molecular Discovery (YCMD). Cells were seeded at 2000 cells/well in black polystyrene flat bottom 384-well plates (Greiner Bio-One) and allowed to adhere overnight. Compound addition was performed utilizing a Labcyte Echo 550 liquid handler (Beckman Coulter), with 6 replicates per test condition and 12 replicates per control condition. Following drug incubation, cells were fixed and stained for phospho-SER139-H2AX (yH2AX), 53BP1, or phospho-SER33-RPA2 (pRPA) as follows. […]

LN229 MGMT−/MMR− cells = assay: Short-term cell viability assay, LN229 MGMT-/MMR- (shRNA targeting MSH2); assay type: cell-based, human; conditions: for IC50: Homo sapiens, read-out: IC50 against LN229 cell lines, MGMT− MMR−; for activity in MGMT−/MMR− cells, in words: LN229 MGMT−/MMR−
Procedure: LN229 MGMT- and MGMT+ cell lines were a gift from B. Kaina (Johannes Gutenberg University Mainz, Mainz, Germany) and grown in Gibco® Duilbecco's Modified Eagle Medium with 10% fetal bovine serum (DMEM). For each compound tested, the relationship between MGMT status and MMR status and compound activity, in terms of IC50 values ([…]), was determined by the following method. On day 1, LN229 isogenic cells of varying MGMT and MMR status were seeded in 96 well format at a density of 2000 cells/well in 100 μL of DMEM media and allowed to adhere overnight. On day 2, a drug master plate was made with 100×the desired maximal concentration of test compound and serially diluted by 2 until 100×the minimal desired concentration, with one DMSO control. Then daughter plates were created with varied concentrations from 3-times the minimal concentration to 3-times the maximal desired concentration. Afterwards, 50 μL of daughter drug plate was added to 100 μL of the seeded cells for a final concentration of 1×in triplicate. Cells were allowed to grow for 6 days. On day 7, the cells were fixed, and stained with Hoechst nuclear dye and imaged to determine growth inhibition.
For each compound tested, the relationship between MGMT status and MMR status and compound activity, in terms of IC50 values (in μM), was determined. In addition, for each compound, the therapeutic index (TI) was calculated, according to the equation MGMT TI=IC50 (MGMT+/MMR+) divided by IC50 (MGMT−/MMR+). […] MMR RI (resistance index)=IC50 (MGMT−/MMR−) divided by IC50 (MGMT−/MMR+).
Short-term Cell Viability Assay. Cells were seeded in 96-well plates at 1000 or 2000 cells/well and allowed to adhere at 23° C. for 60 min and then incubated overnight at 37° C. […] Cells were imaged on a Cytation 3 imaging reader (BioTek) and quantified using CellProfiler software. For in vitro short-term growth delay experiments, IC50 values were determined from the nonlinear regression equation, [inhibitor] vs normalized response with variable slope.

| Compound | γH2AX, 53BP1, pRPA foci formation [1] | IC50 (LN229 MGMT−/MMR− cells; LN-229, 144 h, Table 1, 6 days growth) [µM] | IC50 (LN229 MGMT−/MMR− cells; LN-229, Table II) [µM] | activity in MGMT−/MMR− cells, in words (LN229 MGMT−/MMR− cells) | MGMT− RI (resistance index) (LN229 MGMT−/MMR− cells; Table II, IC50 (MGMT−/MMR−) divided by IC50 (MGMT−/MMR+)) |
| --- | --- | --- | --- | --- | --- |
| Cn1nnc2c(C(N)=O)ncn2c1=O [TMZ, 4-methyl-5-oxo-2,3,4,6,8-pentazabicyclo[4.3.0]nona-2,7,9-triene-9-carboxamide, reference compound] | induced a comparable response in MGMT-cells, but this was abolished in the absence of functional MMR | 838 ± 100 | 838 ± 100 | essentially inactive | – |
| NC(=O)c1ncn2c(=O)n(CCF)nnc12 [KL-50] | induced a maximal foci response at 48 h, specifically in MGMT-cells and irrespective of MMR status | – | 22 ± 6.9 | exquisite sensitivity | 0.9 |

From patent US20240294478A1, “ANTI-CANCER COMPOUNDS AND METHODS OF USE” (YALE UNIVERSITY, priority 2021, published 2024)
